Assay results as given in patent publication US20070027143A1, “Novel substituted 2,3-benzodiazepine derivatives” (priority 2003, published 2007).
Counter-ions that a name gives are not always drawn. Marks after values point to notes of the source that are not given here.

Tested on: not given
Experiment: not given
Details: not given

Row | SMILES | melting point [°C]
1 | CCOC(=O)c1nnc(N2N=C(c3ccc([N+](=O)[O-])c(C)c3)c3cc4c(cc3C[C@H]2C)OCO4)s1 [Example 144, (R)-7-(5-Ethoxycarbonyl-1,3,4-thiadiazol-2-yl)-8-methyl-5-(3-methyl-4-nitrophenyl)-8,9-dihydro-7H-1,3-dioxolo[4,5-h][2,3]benzodiazepine] | 115 to 118
2 | Cc1cc(C2=NN(C3=NN=C(C(=O)OCc4ccccc4)[SH]3CN)[C@H](C)Cc3cc4c(cc32)OCO4)ccc1[N+](=O)[O-] (stereo partly drawn) [Example 145, (R)-7-(5-Benzyloxycarbonyl-aminomethyl-1,3,4-thiadiazol-2-yl)-8-methyl-5-(3-methyl-4-nitrophenyl)-8,9-dihydro-7H-1,3-dioxolo[4,5-h][2,3]benzodiazepine] | 240 to 243
3 | C/C=C/c1nnc(N2N=C(c3ccc([N+](=O)[O-])c(C)c3)c3cc4c(cc3C[C@H]2C)OCO4)s1 [Example 146, (R)-8-Methyl-5-(3-methyl-4-nitrophenyl)-7-{5-[1-(1E)-propen-1-yl]-1,3,4-thiadiazol-2-yl}-8,9-dihydro-7H-1,3-dioxolo[4,5-h][2,3]benzodiazepine] | 232 to 237
4 | CCCCCCc1nnc(N2N=C(c3ccc([N+](=O)[O-])c(C)c3)c3cc4c(cc3C[C@H]2C)OCO4)s1 [Example 147, (R)-7-(5-Hexyl-1,3,4-thiadiazol-2-yl)-8-methyl-5-(3-methyl-4-nitrophenyl)-8,9-dihydro-7H-1,3-dioxolo[4,5-h][2,3]benzodiazepine] | 217 to 224
5 | Cc1cc(C2=NN(C3=NCCS3)[C@H](C)Cc3cc4c(cc32)OCO4)ccc1N [Example 163, (R)-5-(4-Amino-3-methylphenyl)-8-methyl-7-(4,5-dihydro-thiazol-2-yl)-8,9-dihydro-7H-1,3-dioxolo-[4,5-h][2,3]benzodiazepine] | 125 to 128
6 | Cc1cc(C2=NN(c3nccs3)[C@H](C)Cc3cc4c(cc32)OCO4)ccc1N [Example 164, (R)-5-(4-Amino-3-methylphenyl)-8-methyl-7-(thiazol-2-yl)-8,9-dihydro-7H-1,3-dioxolo-[4,5-h][2,3]benzodiazepine] | 124 to 127
7 | Cc1cc(C2=NN(c3nnc(C(C)C)s3)[C@H](C)Cc3cc4c(cc32)OCO4)ccc1N [Example 169, (R)-5-(4-Amino-3-methylphenyl)-7-(5-isopropyl-1,3,4-thiadiazol-2-yl)-8-methyl-8,9-dihydro-7H-1,3-dioxolo[4,5-h][2,3]benzodiazepine] | 134 to 140
8 | Cc1cc(C2=NN(c3nnc(CO)s3)[C@H](C)Cc3cc4c(cc32)OCO4)ccc1N [Example 171, (R)-5-(4-Amino-3-methylphenyl)-7-(5-hydroxymethyl-1,3,4-thiadiazol-2-yl)-8-methyl-8,9-dihydro-7H-1,3-dioxolo[4,5-h][2,3]benzodiazepine] | 184 to 186
9 | CC(=O)OCc1nnc(N2N=C(c3ccc(N)c(C)c3)c3cc4c(cc3C[C@H]2C)OCO4)s1 [Example 172, (R)-7-(5-Acetoxymethyl-1,3,4-thiadiazol-2-yl)-5-(4-amino-3-methylphenyl)-8-methyl-8,9-dihydro-7H-1,3-dioxolo[4,5-h][2,3]benzodiazepine] | 204 to 206
10 | Cc1cc(C2=NN(c3nnc(CC#N)s3)[C@H](C)Cc3cc4c(cc32)OCO4)ccc1N [Example 173, (R)-5-(4-Amino-3-methylphenyl)-7-(5-cyanomethyl-1,3,4-thiadiazol-2-yl)-8-methyl-8,9-dihydro-7H-1,3-dioxolo[4,5-h][2,3]benzodiazepine] | 135 to 140
11 | CSCc1nnc(N2N=C(c3ccc(N)c(C)c3)c3cc4c(cc3C[C@H]2C)OCO4)s1 [Example 174, (R)-5-(4-Amino-3-methylphenyl)-8-methyl-7-(5-methylthiomethyl-1,3,4-thiadiazol-2-yl)-8,9-dihydro-7H-1,3-dioxolo[4,5-h][2,3]benzodiazepine] | 177 to 180
12 | CCOC(=O)c1nnc(N2N=C(c3ccc(N)c(C)c3)c3cc4c(cc3C[C@H]2C)OCO4)s1 [Example 175, (R)-5-(4-Amino-3-methylphenyl)-7-(5-ethoxycarbonyl-1,3,4-thiadiazol-2-yl)-8-methyl-8,9-dihydro-7H-1,3-dioxolo[4,5-h][2,3]benzodiazepine] | 135 to 140
13 | Cc1cc(C2=NN(c3nnc(CN)s3)[C@H](C)Cc3cc4c(cc32)OCO4)ccc1N [Example 176, (R)-5-(4-Amino-3-methylphenyl)-7-(5-aminomethyl-1,3,4-thiadiazol-2-yl)-8-methyl-8,9-dihydro-7H-1,3-dioxolo[4,5-h][2,3]benzodiazepine] | 139 to 140
14 | C/C=C/c1nnc(N2N=C(c3ccc(N)c(C)c3)c3cc4c(cc3C[C@H]2C)OCO4)s1 [Example 177, (R)-5-(4-Amino-3-methylphenyl)-8-methyl-7-{5-[1-(1E)-propen-1-yl]-1,3,4-thiadiazol-2-yl}-8,9-dihydro-7H-1,3-dioxolo[4,5-h][2,3]benzodiazepine] | 139 to 143
15 | CCCCCCc1nnc(N2N=C(c3ccc(N)c(C)c3)c3cc4c(cc3C[C@H]2C)OCO4)s1 [Example 178, (R)-5-(4-Amino-3-methylphenyl)-7-(5-hexyl-1,3,4-thiadiazol-2-yl)-8-methyl-8,9-dihydro-7H-1,3-dioxolo[4,5-h][2,3]benzodiazepine] | 180 to 181
16 | C[C@@H]1Cc2cc3c(cc2C(c2ccc(N)cc2)=NN1c1nnco1)OCO3 [Example 180, (R)-5-(4-Aminophenyl)-8-methyl-7-(1,3,4-oxadiazol-2-yl)-8,9-dihydro-7H-1,3-dioxolo[4,5-h][2,3]benzodiazepine] | 187 to 190
17 | Cc1nnc(N2N=C(c3ccc(N)c(C)c3)c3cc4c(cc3C[C@H]2C)OCO4)o1 [Example 181, (R)-5-(4-Amino-3-methylphenyl)-8-methyl-7-(5-methyl-1,3,4-oxadiazol-2-yl)-8,9-dihydro-7H-1,3-dioxolo[4,5-h][2,3]benzodiazepine] | 140 to 145
18 | COCc1nnc(N2N=C(c3ccc(N)c(Cl)c3)c3cc4c(cc3C[C@H]2C)OCO4)s1 [Example 183, (R)-5-(4-Amino-3-chlorophenyl)-8-methyl-7-(5-methoxymethyl-1,3,4-thiadiazol-2-yl)-8,9-dihydro-7H-1,3-dioxolo[4,5-h][2,3]benzodiazepine] | 105 to 109
19 | C[C@@H]1Cc2cc3c(cc2C(c2ccc(N)cc2)=NN1c1cnns1)OCO3 [Example 186, (R)-5-(4-Aminophenyl)-8-methyl-7-(1,2,3-thiadiazol-5-yl)-8,9-dihydro-7H-1,3-dioxolo-[4,5-h][2,3]benzodiazepine] | 220 to 221
20 | Cc1cc(C2=NN(c3nccs3)[C@H](C)Cc3cc4c(cc32)OCO4)cc(C)c1N [Example 189, (R)-5-(4-Amino-3,5-dimethylphenyl)-8-methyl-7-(thiazol-2-yl)-8,9-dihydro-7H-1,3-dioxolo-[4,5-h][2,3]benzodiazepine] | 202 to 203
21 | Cc1nnc(N2N=C(c3cc(C)c(N)c(C)c3)c3cc4c(cc3C[C@H]2C)OCO4)s1 [Example 190, (R)-5-(4-Amino-3,5-dimethylphenyl)-8-methyl-7-(5-methyl-1,3,4-thiadiazol-2-yl)-8,9-dihydro-7H-1,3-dioxolo[4,5-h][2,3]benzodiazepine] | 280 to 281
22 | Cc1nnc(N2N=C(c3cc(C)c(N)c(C)c3)c3cc4c(cc3C[C@H]2C)OCO4)o1 [Example 191, (R)-5-(4-Amino-3,5-dimethylphenyl)-8-methyl-7-(5-methyl-1,3,4-oxadiazol-2-yl)-8,9-dihydro-7H-1,3-dioxolo[4,5-h][2,3]benzodiazepine] | 148 to 150

Tested on: rats
Experiment: Inhibition of focal ischemia, middle cerebral artery occlusion (MCAO) test
Format: in vivo
Details: 2 mg/kg iv. 6x in every 30 min, first treatment 120 min after occlusion
Method: The focal anti-ischemic activity of the compounds of formula (I) or (II) of the present invention was measured by the “middle cerebral artery occlusion” (MCAO) test (Bartus Stroke 11:2265 (1994) and Sydserff et al, Brit. J. Pharmacol. 114:1631 (1995)). […] After a histological process (TTC staining) 24 h later, the infarcted area was determined by a computer assisted scanner program and was compared to the results obtained in a control group treated with the vehicle.

Row | SMILES | Decrease of the infracted area in % compared to that of the control
23 | CC1=NN=C(c2ccc(N)cc2)c2cc3c(cc2C1)OCO3 [GYKI 52466 HCl, 5-(4-aminophenyl)-8-methyl-9H-1,3-dioxolo[4,5-h][2,3]benzodiazepine, reference compound] | 39* %

Same assay, conditions: 5 mg/kg iv. 6x in every 30 min, first treatment 30 min after occlusion

Row | SMILES | Decrease of the infracted area in % compared to that of the control
24 | CC1=NN=C(c2ccc(N)cc2)c2cc3c(cc2C1)OCO3 [GYKI 52466 HCl, 5-(4-aminophenyl)-8-methyl-9H-1,3-dioxolo[4,5-h][2,3]benzodiazepine, reference compound] | 34* %

Same assay, conditions: 5 mg/kg iv. 6x in every 30 min, first treatment 120 min after occlusion

Row | SMILES | Decrease of the infracted area in % compared to that of the control
25 | CC1=NN=C(c2ccc(N)cc2)c2cc3c(cc2C1)OCO3 [GYKI 52466 HCl, 5-(4-aminophenyl)-8-methyl-9H-1,3-dioxolo[4,5-h][2,3]benzodiazepine, reference compound] | 47** %
